# In patent US9255072B2, “Pyrazole compounds and thiazole compounds as protein kinases inhibitors” (National Health Rsearch Institutes, priority 2011, dated 2016):
# Where two headings read alike, the source gives them in different places.
# How the values were obtained:
# wt-FLT3 = target: T1, wt-FLT3 (Homo sapiens, UniProt P36888); assay: FLT3 WT Kinase-Glo assay; format: biochemical
# T1 construct: FLT3 kinase catalytic domain (residues Y567˜S993); made in house; host or cells: Sf9 insect cells (baculovirus, pBac-PAK8-GST-FLT3-KD plasmid)
# T1 sequence (P36888 567-993): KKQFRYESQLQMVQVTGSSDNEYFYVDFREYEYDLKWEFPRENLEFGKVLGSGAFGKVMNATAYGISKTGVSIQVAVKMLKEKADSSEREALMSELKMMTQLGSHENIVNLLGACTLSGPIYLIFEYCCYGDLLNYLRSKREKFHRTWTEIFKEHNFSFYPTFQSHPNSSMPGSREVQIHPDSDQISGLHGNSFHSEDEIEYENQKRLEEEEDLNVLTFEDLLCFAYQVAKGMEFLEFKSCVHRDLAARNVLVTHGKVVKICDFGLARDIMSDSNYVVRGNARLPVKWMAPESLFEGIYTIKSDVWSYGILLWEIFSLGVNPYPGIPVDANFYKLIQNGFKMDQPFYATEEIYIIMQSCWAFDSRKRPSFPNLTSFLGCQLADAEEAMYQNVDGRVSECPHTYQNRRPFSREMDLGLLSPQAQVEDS
# Outline: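 GST-tagged wild-type FLT3 kinase domain (residues Y567–S993), expressed in Sf9 cells, was used. After the kinase reaction, remaining ATP was detected by Kinase-Glo Plus luminescence following 20 min at 25 °C.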
# VEGFR1 = target: T2, VEGFR1 (Homo sapiens, UniProt P17948); assay: VEGFR1 Kinase-Glo kinase assay; format: biochemical
# T2 construct: GST-VEGFR1 (residues R781-I1338); GST (N); made in house; host or cells: Sf9 insect cells
# T2 sequence (P17948 781-1338): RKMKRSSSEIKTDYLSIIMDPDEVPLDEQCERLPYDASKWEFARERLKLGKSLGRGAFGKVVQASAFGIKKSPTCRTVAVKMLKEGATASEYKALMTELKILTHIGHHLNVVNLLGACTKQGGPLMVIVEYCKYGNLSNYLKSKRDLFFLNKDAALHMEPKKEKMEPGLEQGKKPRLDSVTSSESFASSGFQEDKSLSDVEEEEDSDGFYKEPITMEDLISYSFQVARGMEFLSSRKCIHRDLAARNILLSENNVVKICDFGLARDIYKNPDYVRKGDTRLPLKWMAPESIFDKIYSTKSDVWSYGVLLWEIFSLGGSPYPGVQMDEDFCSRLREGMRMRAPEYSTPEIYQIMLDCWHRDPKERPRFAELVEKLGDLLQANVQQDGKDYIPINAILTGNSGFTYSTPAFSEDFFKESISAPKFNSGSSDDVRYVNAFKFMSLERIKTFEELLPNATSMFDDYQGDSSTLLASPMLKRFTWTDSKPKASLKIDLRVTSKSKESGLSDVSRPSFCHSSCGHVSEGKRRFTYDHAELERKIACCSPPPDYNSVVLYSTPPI
# VEGFR2 = target: T3, VEGFR2 (Homo sapiens, UniProt P35968); assay: VEGFR2 Kinase-Glo kinase assay; format: biochemical
# T3 construct: GST-VEGFR2 (residues V789-V1356); GST (N); made in house; host or cells: Sf9 insect cells
# T3 sequence (P35968 789-1356): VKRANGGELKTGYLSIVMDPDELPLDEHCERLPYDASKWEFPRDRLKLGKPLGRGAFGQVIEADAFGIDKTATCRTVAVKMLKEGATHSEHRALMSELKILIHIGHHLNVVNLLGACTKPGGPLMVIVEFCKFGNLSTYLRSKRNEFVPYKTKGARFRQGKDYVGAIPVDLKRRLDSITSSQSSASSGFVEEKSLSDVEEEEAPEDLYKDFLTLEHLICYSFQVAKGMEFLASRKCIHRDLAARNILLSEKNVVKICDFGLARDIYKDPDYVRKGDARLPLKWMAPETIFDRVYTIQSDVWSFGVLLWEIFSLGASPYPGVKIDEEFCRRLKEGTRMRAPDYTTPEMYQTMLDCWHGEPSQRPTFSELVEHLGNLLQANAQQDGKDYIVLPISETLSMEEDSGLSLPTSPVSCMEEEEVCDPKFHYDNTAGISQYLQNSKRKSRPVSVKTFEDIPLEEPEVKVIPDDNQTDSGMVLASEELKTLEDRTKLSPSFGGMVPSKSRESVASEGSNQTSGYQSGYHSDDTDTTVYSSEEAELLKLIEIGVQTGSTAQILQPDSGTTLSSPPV
# MOLM-13 cell = assay: MTS cell viability assay; format: cell-based; details: Homo sapiens, MOLM-13, 72 h, table of representative values
# Excerpt: The leukemias cell lines MOLM-13, MV4:11, RSV4:11, MOLT-4, U937, and K562 were purchased from American Type Culture Collection (ATCC, Manassas, Va., USA). The non-leukemias cell lines HCC827, H1975, NCIH460, A431, Huh7, SF268, MCF-7, HCT-116, and normal human fetal fibroblast cell line Detriot 551 were purchased from American Type Culture Collection (ATCC, Manassas, Va., USA). All leukemias cell lines and HCC827, H1975, NCIH460, A431 were maintained in RPMI 1640 medium supplemented with 10% fetal bovine serum (FBS), 10 U/ml penicillin, and 10 µg/ml streptomycin at 37° C. and 5% CO2. The cell lines Huh7, SF268, MCF-7, and Detroit 551 were cultured in DMEM medium supplemented with 10% FBS, 0.01% nonessential amino acids, 10 U/ml penicillin, and 10 µg/ml streptomycin. HCT-116 were cultured in McCoy's 5A medium supplemented with 10% FBS, 0.01% nonessential amino acids, 10 U/ml penicillin, and 10 µg/ml streptomycin. To determine cell viability after drug treatment, assays were performed by seeding 10,000 cells (leukemias cell lines) or 2,500 cells (non-leukemias cell lines) per well in a 96-well culture plate. After 16 h, cells were then treated with vehicle or various concentrations of compound in medium for 72 h. Viable cells were quantitated using the MTS method (Promega, Madison, Wis., USA) according to the manufacturer's recommended protocol. The results were determined by measuring the absorbance at 490 nm using a plate reader (Victor2; PerkinElmer, Shelton, Conn., USA).
# [1] = FLT3 WT Kinase-Glo, 1 μM ATP, read-out: IC50
# [2] = table of representative values, read-out: IC50 (nM) wt-FLT3
# [3] = VEGFR1 assay, 1 μM ATP, bound in nM, read-out: IC50
# [4] = VEGFR1 assay, 1 μM ATP, bound in μM, read-out: IC50
# [5] = table of representative values, read-out: IC50 (nM) VEGFR1
# [6] = VEGFR2 assay, 1 μM ATP, bound in μM, read-out: IC50
# [7] = VEGFR2 assay, 1 μM ATP, ranges in nM, read-out: IC50
# [8] = table of representative values, read-out: IC50 (nM) VEGFR2
IC50 (wt-FLT3; [1]) [nM],IC50 (wt-FLT3; [2]) [nM],IC50 (VEGFR1; [3]) [nM],IC50 (VEGFR1; [4]) [nM],IC50 (VEGFR1; [5]) [nM],IC50 (VEGFR2; [6]) [µM],IC50 (VEGFR2; [7]) [µM],IC50 (VEGFR2; [8]) [µM],GI50 (MOLM-13 cell) [nM],SMILES
1 to 20,14,< 100,< 1000,63,< 1,0.001 to 0.055,0.007,3,"CCc1cc(NC(=O)Nc2ccc(-c3cnc(Nc4cc(N5CCC(N)C5)nc(C)n4)s3)cc2)no1 (stereo not drawn) [Compound 119, N-[4-(2-[6-(3-aminotetrahydro-1H-1-pyrrolyl)-2-methyl-4-pyrimidinyl]amino-1,3-thiazol-5-yl)phenyl]N′-(5-ethyl-3-isoxazolyl)urea]"
1 to 20,15,< 100,< 1000,20,< 1,0.001 to 0.055,0.025,2,"CCc1cc(NC(=O)Nc2ccc(-c3cnc(Nc4cc(N5CCN(CC)CC5)nc(C)n4)s3)cc2)no1 [Compound 112, N-(5-ethyl-3-isoxazolyl)-N′-[4-(2-[6-(4-ethylpiperazino)-2-methyl-4-pyrimidinyl]amino-1,3-thiazol-5-yl)phenyl]urea]"
